“And” between values parts separate entries of the source, which are not always exact repeats. Equal values may be shown once.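 Briefly, cells in 96-well plates were exposed to five compound concentrations for 48 h, and endpoints were estimated by linear interpolation. GI50: concentration for 50% inhibition of growth. Definition used: TGI = concentration required for complete inhibition of growth.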
The compounds below were run on ACHN renal (assay: inhibition of tumour cell growth, NCI panel, 48 h).

Question: Which results are given for `O=C(CN(C1CCCCC1)C1CCCCC1)Nc1ccc(S(=O)(=O)c2ccc(NC(=O)CN(C3CCCCC3)C3CCCCC3)cc2)cc1`?
Answer: GI50: 1.17 µM; TGI: 2.4 µM

Question: For `O=C(/C=C/c1c(O)ccc2ccccc12)c1ccc2ccccc2c1`, which TGI is on record?
Answer: Its TGI is over 100 µM.

Question: How did the GI50 turn out when `O=c1[nH]c2cc(Cl)ccc2n1C1CCN(CCCC(c2ccc(F)cc2)c2ccc(F)cc2)CC1` was run?
Answer: The GI50 was 1.54 µM.

Question: And the TGI?
Answer: Its TGI is 2.87 µM.

Question: Which TGI does the source give for `CCOC(=O)C1N(S(=O)(=O)c2ccc(C)cc2)CCC12C(c1ccc(OC)cc1)NC1CCCCC12` (stereo not drawn) here?
Answer: The TGI was over 100 µM.

Question: What does the source list for `Nc1nc(Br)nc2c1ncn2C1CC(O)C(CO)O1` (stereo not drawn)?
Answer: GI50: 3.7 µM; TGI: > 100 µM

Question: With `Nc1nc(Nc2ccccc2)c2ncn(Cc3cc4c(cc3Br)OCO4)c2n1` as the compound, how does the GI50 read?
Answer: Its GI50 is 0.0799 µM.

Question: And the TGI?
Answer: The TGI was 30.4 µM.

Question: With `CCOC(=O)N1CCN(C(=O)c2ccc(C(F)(F)F)nc2Nc2cc(Cl)ccc2C)CC1` as the compound, how does the GI50 read?
Answer: The GI50 was 13.9 µM.

Question: What about the TGI of the same compound?
Answer: Its TGI is 89.4 µM.

Question: Which results are given for `Cc1ccc(Nc2nc(N)c(C(=O)c3ccc(C#N)cc3)s2)cc1`?
Answer: GI50: 0.587 µM; TGI: > 80.5 µM

Question: What does the source list for `O=C1c2ccn(CCCCNC(CO)(CO)CO)c2C(=O)c2c1c(O)c1ccccc1c2O`?
Answer: GI50: 0.56 µM; TGI: 1.89 µM

Question: For `COC(=O)/C=C/C1C(C(=O)OC)C2(C(=O)OC)CCC1(C(=O)OC)N2` (stereo not drawn), which TGI is on record?
Answer: The TGI was over 100 µM.

Question: For `CC(C)(C)N1CC2(CCCCC2)C1=O`, which TGI is on record?
Answer: The TGI was over 100 µM.

Question: `COc1ccc(-c2cc(-c3cccn3C)c(C#N)c(N)n2)cc1OC` was tested. Which GI50 did it give?
Answer: Its GI50 is over 100 µM.

Question: And the TGI?
Answer: Its TGI is over 100 µM.

Question: `COc1ccc(CNc2c3ccccc3nc3ccccc23)cc1OC` was tested. Which GI50 did it give?
Answer: Its GI50 is 1.39 µM.

Question: And the TGI?
Answer: The TGI was 7.94 µM.

Question: With `O=C(Nc1ccc(Cl)cc1F)c1cc(Br)ccc1O` as the compound, how does the GI50 read?
Answer: The GI50 was 1.12 µM.

Question: And the TGI?
Answer: The TGI was 16.7 µM.

Question: How did the GI50 turn out when `COc1ccc(-n2cc(-c3ccc(Cl)c(Cl)c3)nc2SCc2cccc(C#N)c2)cc1` was run?
Answer: Its GI50 is 30.4 µM.

Question: What about the TGI of the same compound?
Answer: Its TGI is over 100 µM.

Question: Which TGI does the source give for `N#CC(/C(=N/NC(=O)C(=O)NN)C(=O)NC12CC3CC(CC(C3)C1)C2)c1ccccc1` (stereo not drawn) here?
Answer: Its TGI is over 100 µM.

Question: What does the source list for `Nc1c(C(=O)N/N=C/c2ccc(-c3ccc(Cl)cc3)o2)cnn1-c1ccnc2c(C(F)(F)F)cccc12`?
Answer: GI50: > 100 µM; TGI: > 100 µM

Question: `Fc1ccc(Nc2cc(-n3nnc4ccccc43)nc3ccccc23)cc1` was tested. Which GI50 did it give?
Answer: The GI50 was over 62.6 µM.

Question: And the TGI?
Answer: The TGI was over 100 µM.

Question: Which GI50 does the source give for `NC(=O)C(=CNc1nc(-c2ccc(Cl)c(Cl)c2)cs1)C(N)=O` here?
Answer: The GI50 was over 100 µM.

Question: And the TGI?
Answer: The TGI was over 100 µM.

Question: How did the TGI turn out when `NC(N)=N/N=C/c1cc(Cl)cc(Cl)c1O` was run?
Answer: Its TGI is over 100 µM.

Question: With `O=C(Nc1cccc(Cl)c1)c1cc2ccccc2cc1O` as the compound, how does the GI50 read?
Answer: Its GI50 is 2.55 µM and 0.609 µM.

Question: What about the TGI of the same compound?
Answer: The TGI was over 100 µM.

Question: With `CCCCCCCCCc1cc(=O)c2c(O)cccc2o1` as the compound, how does the TGI read?
Answer: The TGI was over 100 µM.

The compounds below were run on HCC-2998 colon (assay: inhibition of tumour cell growth, NCI panel, 48 h).

Question: `O=C1/C(=C\c2cccn2Cc2ccccc2)c2ccccc2N1c1c(Cl)cccc1Cl` was tested. Which GI50 did it give?
Answer: The GI50 was 1.83 µM.

Question: And the TGI?
Answer: Its TGI is over 100 µM.

Question: How did the TGI turn out when `CCOC(=O)c1[nH]c(COC(C)=O)c(CCCOC(C)=O)c1CCCOC(C)=O` was run?
Answer: Its TGI is over 100 µM.

Question: Which results are given for `Cc1sc2nc(NCCc3c[nH]c4ccc(Cl)cc34)[nH]c(=O)c2c1C`?
Answer: GI50: 2.39 µM; TGI: 5.71 µM

Question: With `COc1ccc(/C=c2/sc3n(c2=O)C(c2ccc(OC)c(OC)c2)C2=C(N=3)c3cc(F)ccc3OC2)cc1` (stereo not drawn) as the compound, how does the TGI read?
Answer: Its TGI is 21.2 µM.

Question: Which TGI does the source give for `O=C(Nc1ccc([N+](=O)[O-])cc1)C1C(=O)C(=O)N(c2ccc([N+](=O)[O-])cc2)C1=O` (stereo not drawn) here?
Answer: Its TGI is over 100 µM.

Question: `O=C(O)c1cc(O)c2c(c1)C(C1c3cc(C(=O)O)cc(O)c3C(=O)c3c(OC4OC(CO)C(O)C(O)C4O)cccc31)c1cccc(OC3OC(CO)C(O)C(O)C3O)c1C2=O` (stereo not drawn) was tested. Which GI50 did it give?
Answer: Its GI50 is over 100 µM.

Question: And the TGI?
Answer: Its TGI is over 100 µM.

Question: Which GI50 does the source give for `O=C(CN(C1CCCCC1)C1CCCCC1)Nc1ccc(S(=O)(=O)c2ccc(NC(=O)CN(C3CCCCC3)C3CCCCC3)cc2)cc1` here?
Answer: The GI50 was 1.7 µM.

Question: What about the TGI of the same compound?
Answer: The TGI was 3.22 µM.

Question: For `O=C(/C=C/c1c(O)ccc2ccccc12)c1ccc2ccccc2c1`, which TGI is on record?
Answer: The TGI was over 100 µM.

Question: Which GI50 does the source give for `O=c1[nH]c2cc(Cl)ccc2n1C1CCN(CCCC(c2ccc(F)cc2)c2ccc(F)cc2)CC1` here?
Answer: Its GI50 is 1.87 µM.

Question: What about the TGI of the same compound?
Answer: The TGI was 3.49 µM.

Question: For `CCOC(=O)C1N(S(=O)(=O)c2ccc(C)cc2)CCC12C(c1ccc(OC)cc1)NC1CCCCC12` (stereo not drawn), which TGI is on record?
Answer: Its TGI is over 100 µM.

Question: How did the GI50 turn out when `Nc1nc(Br)nc2c1ncn2C1CC(O)C(CO)O1` (stereo not drawn) was run?
Answer: Its GI50 is 4.55 µM.

Question: And the TGI?
Answer: The TGI was over 100 µM.

Question: What does the source list for `Nc1nc(Nc2ccccc2)c2ncn(Cc3cc4c(cc3Br)OCO4)c2n1`?
Answer: GI50: 0.205 µM; TGI: > 32.7 µM

Question: With `CCOC(=O)N1CCN(C(=O)c2ccc(C(F)(F)F)nc2Nc2cc(Cl)ccc2C)CC1` as the compound, how does the GI50 read?
Answer: Its GI50 is 11.6 µM.

Question: And the TGI?
Answer: Its TGI is 30.1 µM.
